The results in this text go back to paper PMC7206119, “RIP1 inhibition blocks inflammatory diseases but not tumor growth or metastases” (Cell Death and Differentiation, 2019).

Some targets named below: NEK2 (Homo sapiens, UniProt P51955); PIKFYVE (Homo sapiens, UniProt Q9Y2I7); FES (Homo sapiens, UniProt P07332); ULK1 (Homo sapiens, UniProt O75385); PIK3CA (Homo sapiens, UniProt P42336); CLK2 (Homo sapiens, UniProt P49760); RET (Homo sapiens, UniProt P07949); TLK2 (Homo sapiens, UniProt Q86UE8); GRK2 (Homo sapiens, UniProt P25098); PRKD2 (Homo sapiens, UniProt Q9BZL6); PIK3CD (Homo sapiens, UniProt O00329); TXK (Homo sapiens, UniProt P42681); EGFR (Homo sapiens, UniProt P00533); MYLK4 (Homo sapiens, UniProt Q86YV6).

What all share (assay): biochemical
Common to all, as to design: DiscoverX kinase panel, active-site competition binding (KINOMEscan type), percent of control at one concentration
Conditions in all cases: competition binding, percent of control

For a further test, the target named is T1, ADCK3 (Homo sapiens, UniProt Q8NI60).
T1 construct: gene COQ8A

Another test concerns the target T2, BRK (Homo sapiens, UniProt Q13882).
T2 construct: gene PTK6

Test [1] has as its target T3, ABL1(Q252H)-nonphosphorylated (Homo sapiens, UniProt P00519, Q252H).
T3 construct: nonphosphorylated

In a further test the target is T4, VPS34 (Homo sapiens, UniProt Q8NEB9).
T4 construct: gene PIK3C3

The target in a further test is T5, MLCK (Homo sapiens, UniProt Q32MK0).
T5 construct: gene MYLK3

In test [2] the target is T6, RSK2(Kin.Dom.2-C-terminal) (Homo sapiens, UniProt P51812).
T6 construct: gene RPS6KA3; Kin.Dom.2-C-terminal

Test [3] has as its target T7, TYK2(JH2domain-pseudokinase) (Homo sapiens, UniProt P29597).
T7 construct: JH2domain-pseudokinase

Chain of TXK (P42681 whole entry): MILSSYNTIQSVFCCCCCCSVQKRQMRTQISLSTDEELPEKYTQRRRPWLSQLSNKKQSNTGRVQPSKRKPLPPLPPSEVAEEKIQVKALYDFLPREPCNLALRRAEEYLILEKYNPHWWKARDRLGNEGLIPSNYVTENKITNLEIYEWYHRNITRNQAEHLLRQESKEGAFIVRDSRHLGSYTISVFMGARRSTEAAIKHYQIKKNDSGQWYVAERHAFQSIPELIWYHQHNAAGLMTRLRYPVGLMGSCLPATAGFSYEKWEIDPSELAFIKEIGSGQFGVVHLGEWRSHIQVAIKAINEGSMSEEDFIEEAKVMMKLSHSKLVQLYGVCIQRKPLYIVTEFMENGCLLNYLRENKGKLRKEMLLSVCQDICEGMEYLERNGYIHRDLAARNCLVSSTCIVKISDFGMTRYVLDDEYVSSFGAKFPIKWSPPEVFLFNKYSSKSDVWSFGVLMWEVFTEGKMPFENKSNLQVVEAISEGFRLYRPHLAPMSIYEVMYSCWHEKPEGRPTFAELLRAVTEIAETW
Chain of GRK2 (P25098 whole entry): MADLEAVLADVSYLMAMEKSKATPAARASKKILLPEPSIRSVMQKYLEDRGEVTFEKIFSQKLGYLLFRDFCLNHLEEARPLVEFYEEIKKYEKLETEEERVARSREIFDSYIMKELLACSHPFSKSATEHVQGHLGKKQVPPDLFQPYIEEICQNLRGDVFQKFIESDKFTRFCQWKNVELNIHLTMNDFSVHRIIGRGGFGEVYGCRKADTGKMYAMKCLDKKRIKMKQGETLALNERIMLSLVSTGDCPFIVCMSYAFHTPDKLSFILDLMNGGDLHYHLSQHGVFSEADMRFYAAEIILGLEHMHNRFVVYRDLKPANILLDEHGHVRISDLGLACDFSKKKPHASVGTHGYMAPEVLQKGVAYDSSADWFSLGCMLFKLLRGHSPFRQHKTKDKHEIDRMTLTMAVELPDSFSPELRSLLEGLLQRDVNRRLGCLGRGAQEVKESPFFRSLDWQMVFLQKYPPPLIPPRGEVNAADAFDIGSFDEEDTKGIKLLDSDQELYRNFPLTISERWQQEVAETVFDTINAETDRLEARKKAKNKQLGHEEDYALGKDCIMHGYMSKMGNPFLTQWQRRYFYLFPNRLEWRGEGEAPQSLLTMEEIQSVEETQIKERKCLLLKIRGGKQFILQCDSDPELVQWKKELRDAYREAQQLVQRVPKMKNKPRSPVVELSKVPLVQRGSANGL
Chain of ULK1 (O75385 whole entry): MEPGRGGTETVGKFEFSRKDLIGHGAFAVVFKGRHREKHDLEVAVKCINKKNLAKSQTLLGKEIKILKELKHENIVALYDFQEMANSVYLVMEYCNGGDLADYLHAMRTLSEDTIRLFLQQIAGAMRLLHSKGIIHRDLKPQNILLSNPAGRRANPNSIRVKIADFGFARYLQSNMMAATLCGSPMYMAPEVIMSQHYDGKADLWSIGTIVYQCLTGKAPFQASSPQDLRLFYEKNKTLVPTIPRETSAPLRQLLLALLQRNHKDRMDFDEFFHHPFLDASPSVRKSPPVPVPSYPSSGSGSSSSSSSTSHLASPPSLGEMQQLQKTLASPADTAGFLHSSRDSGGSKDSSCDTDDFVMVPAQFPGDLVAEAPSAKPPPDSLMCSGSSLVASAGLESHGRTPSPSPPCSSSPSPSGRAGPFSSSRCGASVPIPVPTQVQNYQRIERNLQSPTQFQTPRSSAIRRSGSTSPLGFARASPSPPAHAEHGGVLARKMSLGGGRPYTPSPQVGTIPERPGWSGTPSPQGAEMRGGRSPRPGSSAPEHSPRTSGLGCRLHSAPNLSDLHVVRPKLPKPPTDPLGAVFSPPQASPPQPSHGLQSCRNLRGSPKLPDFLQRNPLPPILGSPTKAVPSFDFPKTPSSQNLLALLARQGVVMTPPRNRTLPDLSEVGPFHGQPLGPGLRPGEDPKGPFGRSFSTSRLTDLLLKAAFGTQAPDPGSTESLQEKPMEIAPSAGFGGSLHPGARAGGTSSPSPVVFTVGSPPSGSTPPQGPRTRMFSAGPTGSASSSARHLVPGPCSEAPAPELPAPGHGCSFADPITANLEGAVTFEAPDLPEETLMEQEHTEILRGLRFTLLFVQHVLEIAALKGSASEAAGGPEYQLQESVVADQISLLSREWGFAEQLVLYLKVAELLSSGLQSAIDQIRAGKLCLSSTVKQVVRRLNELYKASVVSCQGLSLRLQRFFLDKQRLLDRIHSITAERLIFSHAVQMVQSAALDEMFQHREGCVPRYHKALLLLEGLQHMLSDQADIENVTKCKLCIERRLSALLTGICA
T7 sequence (P29597 whole entry): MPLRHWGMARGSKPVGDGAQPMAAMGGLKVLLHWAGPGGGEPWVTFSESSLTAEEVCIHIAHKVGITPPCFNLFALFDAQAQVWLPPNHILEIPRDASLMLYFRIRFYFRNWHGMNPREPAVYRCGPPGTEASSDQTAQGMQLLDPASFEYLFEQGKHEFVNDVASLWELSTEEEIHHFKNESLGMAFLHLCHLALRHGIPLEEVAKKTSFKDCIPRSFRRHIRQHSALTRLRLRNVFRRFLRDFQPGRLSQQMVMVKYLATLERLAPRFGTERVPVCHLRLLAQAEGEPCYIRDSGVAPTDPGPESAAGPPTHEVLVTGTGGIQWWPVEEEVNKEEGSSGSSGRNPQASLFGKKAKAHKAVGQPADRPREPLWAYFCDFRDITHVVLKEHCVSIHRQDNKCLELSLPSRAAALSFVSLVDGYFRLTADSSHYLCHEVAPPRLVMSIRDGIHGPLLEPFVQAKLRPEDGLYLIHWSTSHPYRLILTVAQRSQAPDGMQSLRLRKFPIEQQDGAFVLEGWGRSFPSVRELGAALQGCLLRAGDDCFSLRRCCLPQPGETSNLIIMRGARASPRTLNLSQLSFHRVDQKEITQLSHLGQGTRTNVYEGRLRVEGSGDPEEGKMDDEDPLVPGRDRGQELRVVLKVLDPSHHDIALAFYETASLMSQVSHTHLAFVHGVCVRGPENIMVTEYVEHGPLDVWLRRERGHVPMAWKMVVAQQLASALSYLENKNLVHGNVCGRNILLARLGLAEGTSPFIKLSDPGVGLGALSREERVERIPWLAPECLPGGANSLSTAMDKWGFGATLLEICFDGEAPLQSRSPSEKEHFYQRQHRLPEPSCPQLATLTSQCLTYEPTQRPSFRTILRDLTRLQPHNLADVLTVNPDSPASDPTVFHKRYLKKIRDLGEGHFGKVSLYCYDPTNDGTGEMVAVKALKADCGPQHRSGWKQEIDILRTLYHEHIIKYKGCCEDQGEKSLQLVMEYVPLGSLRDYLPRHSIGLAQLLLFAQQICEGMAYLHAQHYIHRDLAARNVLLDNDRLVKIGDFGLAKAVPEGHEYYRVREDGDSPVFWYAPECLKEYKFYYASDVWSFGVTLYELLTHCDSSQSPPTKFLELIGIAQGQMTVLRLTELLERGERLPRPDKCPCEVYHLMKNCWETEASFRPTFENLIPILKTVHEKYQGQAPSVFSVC
T2 sequence (Q13882 whole entry): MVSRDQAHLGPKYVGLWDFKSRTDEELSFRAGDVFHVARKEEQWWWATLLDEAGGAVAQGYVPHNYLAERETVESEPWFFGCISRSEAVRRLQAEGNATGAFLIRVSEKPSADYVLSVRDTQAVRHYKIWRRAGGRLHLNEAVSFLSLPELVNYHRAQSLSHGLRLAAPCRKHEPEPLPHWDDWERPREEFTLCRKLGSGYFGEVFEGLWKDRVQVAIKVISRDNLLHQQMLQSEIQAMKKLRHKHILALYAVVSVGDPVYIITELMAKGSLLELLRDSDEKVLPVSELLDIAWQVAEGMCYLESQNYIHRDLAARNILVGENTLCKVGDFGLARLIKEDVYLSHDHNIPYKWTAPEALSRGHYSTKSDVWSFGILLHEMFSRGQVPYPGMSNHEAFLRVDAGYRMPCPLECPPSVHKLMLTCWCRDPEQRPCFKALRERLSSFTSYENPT
Chain of RET (P07949 whole entry): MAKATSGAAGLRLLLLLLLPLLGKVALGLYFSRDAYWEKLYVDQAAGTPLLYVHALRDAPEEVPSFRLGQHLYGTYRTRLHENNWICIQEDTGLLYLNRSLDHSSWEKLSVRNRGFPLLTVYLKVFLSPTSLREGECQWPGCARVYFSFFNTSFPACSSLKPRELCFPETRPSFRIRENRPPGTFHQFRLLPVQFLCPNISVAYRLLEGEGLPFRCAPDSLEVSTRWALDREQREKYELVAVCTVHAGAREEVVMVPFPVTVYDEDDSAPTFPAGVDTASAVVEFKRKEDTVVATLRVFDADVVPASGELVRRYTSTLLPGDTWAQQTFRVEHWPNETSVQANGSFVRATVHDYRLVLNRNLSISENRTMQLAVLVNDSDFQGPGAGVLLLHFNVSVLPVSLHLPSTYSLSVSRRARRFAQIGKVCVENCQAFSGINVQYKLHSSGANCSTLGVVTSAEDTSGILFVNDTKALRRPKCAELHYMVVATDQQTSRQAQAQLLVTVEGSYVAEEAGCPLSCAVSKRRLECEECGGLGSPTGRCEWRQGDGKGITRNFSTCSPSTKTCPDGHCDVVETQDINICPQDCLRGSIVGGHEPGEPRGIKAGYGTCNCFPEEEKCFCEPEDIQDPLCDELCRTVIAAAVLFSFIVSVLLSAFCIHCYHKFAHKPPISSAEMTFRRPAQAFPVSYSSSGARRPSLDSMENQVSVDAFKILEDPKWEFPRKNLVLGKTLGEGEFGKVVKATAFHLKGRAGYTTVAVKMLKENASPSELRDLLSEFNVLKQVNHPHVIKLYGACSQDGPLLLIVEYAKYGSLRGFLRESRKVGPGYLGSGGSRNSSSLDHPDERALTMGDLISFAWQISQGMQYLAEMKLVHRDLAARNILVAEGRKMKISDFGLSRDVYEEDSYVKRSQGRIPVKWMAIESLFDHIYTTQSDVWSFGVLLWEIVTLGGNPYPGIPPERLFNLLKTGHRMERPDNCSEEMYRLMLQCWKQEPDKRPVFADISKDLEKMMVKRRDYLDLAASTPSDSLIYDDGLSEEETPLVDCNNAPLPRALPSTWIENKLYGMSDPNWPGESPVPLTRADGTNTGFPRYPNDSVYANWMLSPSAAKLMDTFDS

Regarding `COc1cc2c(cn1)N(C)C(=O)[C@@H](NC(=O)c1nc3n(n1)[C@H](c1ccccc1)CC3)CC2` [GNE684, (S)-N-((S)-7-methoxy-1-methyl-2-oxo-2,3,4,5-tetrahydro-1H-pyrido[3,4-b]azepin-3-yl)-5-phenyl-6,7-dihydro-5H-pyrrolo[1,2-b][1,2,4]triazole-2-carboxamide], the remaining binding at 10 µM on NEK2 was 92%; on PIKFYVE, 100%; at FES, 100%; at ULK1, 98%; on ADCK3, 98%; on BRK, 100%. The remaining binding at 10 µM turned out to be 100% at PIK3CA; 74% at CLK2; 98% on RET; 100% at TLK2; 68% in [1]; 94% at GRK2. In addition, the remaining binding at 10 µM at PRKD2 turned out to be 100%; at PIK3CD it was 78%; at TXK, 100%; at EGFR, 100%; on VPS34, 100%; on MLCK, 66%. The remaining binding at 10 µM stood at 100% at MYLK4, 85% in test [2] and 100% in test [3].
